Data as given in the NIST ThermoML archive (doi:10.1016/j.jct.2017.12.002).
Numbers after ± are expanded uncertainties.

Legend:
[1] = 101.33 kPa, Liquid, Vibrating tube method
[2] = refractive index (Na D-line) (dimensionless); conditions: 101.33 kPa, Liquid, Standard Abbe refractometry

Row | mass density ([1]; 293.15 K) | mass density ([1]; 295.15 K) | mass density ([1]; 297.15 K) | mass density ([1]; 298.15 K) | mass density ([1]; 298.6 K) | refractive index ([2]; 293.15 K) | refractive index ([2]; 298.15 K) | mass density ([1]; 301.35 K) | SMILES
1 | 664.225 ± 0.17 kg/m3 | 662.39 ± 0.18 kg/m3 | 660.589 ± 0.17 kg/m3 | 659.736 ± 0.18 kg/m3 | 659.308 ± 0.18 kg/m3 | 1.37654 ± 0.00041 | 1.37387 ± 0.00041 | – | CCC(C)CC [3-methylpentane]
2 | 673.227 ± 0.17 kg/m3 | 670.871 ± 0.17 kg/m3 | 668.986 ± 0.17 kg/m3 | 668.033 ± 0.17 kg/m3 | – | 1.38796 ± 0.00041 | 1.3851 ± 0.00041 | 664.998 ± 0.17 kg/m3 | C=CCCCC [hex-1-ene]
